{
  "source": "patent US8007836B2",
  "about": "“Cleome spinosa extract used in pharmaceutical preparations and cosmetic compositions” (Pierre Fabre Dermo-Cosmetique, priority 2007, dated 2011)",
  "system": "human hair follicles",
  "test": "Growth of cultivated entire human hair follicles from scalp ex vivo, 14 days of culture",
  "type": "cell-based",
  "conditions": "vs control non-treated follicles, minoxidil concentration not given",
  "method": "Study of the effect of a Cleome spinosa extract on the growth of cultivated human hair follicles.\nEvaluation of minoxidil, a reference molecule, was conducted in parallel.\nHair follicles originate from the human scalp from plastic surgery departments of hospitals or clinics (two donors).\nThe skin is shaved and washed in 6 baths of antibiotics. The follicles in the anagen phase are recognizable because they are very vascularized, and then isolated from the skin under a binocular magnifier and cleared of fat.\nThey are then incubated at 37° C. in 24-well culture dishes in an adequate culture medium containing the products to be tested.\nThe growth of the stem of the hair follicle is measured with plotting paper under a binocular magnifier on days 0, 4, 5, 7, 9, 12 or 14.\nThe determination of the growth and activity percentages of the hydroalcoholic extract of Cleome spinosa was carried out after 4 or 5, 7 or 8, 12 and 14 days of treatment of the hair follicles as compared with control non-treated follicles.\nNotation: Tx is the time x after treatment • T0 is time 0 of the beginning of the treatment\nThe growth percentage is equal to (Tx measurement−T0 measurement)/T0 measurement×100\nThe activity of the treatment is calculated in the following way: [(Tx treated measurement−T0 treated measurement)−(Tx control measurement−T0 control measurement)]/(Tx control measurement−T0 control measurement)×100",
  "data": [
    {"smiles": "Nc1cc(N2CCCCC2)nc(N)[n+]1[O-]", "note": "[Minoxidil, 2,4-diamino-6-piperidinopyrimidine-3-oxide]", "values": [
      {"measurement": "% of activity", "setting": "D4/D5 of treatment", "value": 55, "unit": "%"},
      {"measurement": "% of activity", "setting": "D8/D7 of treatment", "value": 41, "unit": "%"},
      {"measurement": "% of activity", "setting": "D12 of treatment", "value": 21, "unit": "%"},
      {"measurement": "% of activity", "setting": "D14 of treatment", "value": 17, "unit": "%"}
    ]}
  ]
}
